Among the data in US6423727B1, “Certain thiol inhibitors of endothelin-converting enzyme” (Novartis AG, priority 1998, dated 2002) are melting point values, retold here.

Where a name gives a salt, the structure may show the parent alone.

As to `CC(C)C[C@H](S)C(=O)NC1(C(=O)NC(Cc2ccc(-c3cncnc3)cc2)C(=O)O)CCCC1` (stereo in doubt) [2-{[1-(2-Mercapto-4-methyl-pentanoylamino)-cyclopentanecarbonyl]-amino}-3-(4-pyrimidin-5-yl-phenyl)-propionic acid], the melting point was in the range of 192 to 195 °C.
The result for `CC(C)C[C@H](S)C(=O)NC1(C(=O)NC(Cc2ccc(-c3ccccc3O)cc2)C(=O)O)CCCC1` (stereo in doubt) [3-(2′-Hydroxy-biphenyl-4-yl)-2-{[1-(2-mercapto-4-methyl-pentanoylamino)-cyclopentanecarbonyl]-amino}-propionic acid] reads 215 to 217 °C; that for `CC(C)[C@H](S)C(=O)NC1(C(=O)NC(Cc2ccc(-c3ccncc3)cc2)C(=O)O)CCCC1` (some centres unmarked) [2-{[1-(2-Mercapto-3-methyl-butanoylamino)-cyclopentanecarbonyl]-amino}-3-(4-yl-phenyl)-propionic acid], 236 to 238 °C; that for `COc1cc(C[C@H](NC(=O)C2(NC(=O)[C@@H](S)C(C)C)CCCC2)C(=O)O)ccc1-c1ccccc1` (stereo in doubt) [2-{[1-(2-Mercapto-3-methylbutanoylamino)-cyclopentanecarbonyl]-amino}-3-(2-methoxybiphenyl-4-yl)-propionic acid], 121 to 123 °C.
The result for `CC(C)[C@H](S)C(=O)NC1(C(=O)N[C@@H](Cc2ccc(-c3ccccc3F)cc2)C(=O)O)CCCC1` (stereo in doubt) [3-(2′-Fluoro-biphenyl-4-yl)-2-{[1-(2-mercapto-3-methyl-butanoylamino)-cyclopentanecarbonyl]-amino}-propionic acid] reads 171 to 173 °C; that for `CC(C)CC(S)C(=O)NC1(C(=O)NC(Cc2c[nH]c3ccccc23)C(=O)O)CCCC1` (centres unmarked) [Example 13(b), 3-(1H-Indol-3-yl)-2-{[1-(2-mercapto-4-methyl-pentanoylamino)-cyclopentanecarbonyl]-amino}-propionic acid], 116 to 118 °C.
`O=C(NC1(C(=O)NC(Cc2ccc(C3CCCCC3)cc2)C(=O)O)CCCC1)C(S)Cc1ccccc1` (centres unmarked) [3-(4-Cyclohexyl-phenyl)-2-{[1-(2-mercapto-3-phenyl-propionylamino)-cyclopentanecarbonyl]-amino}-propionic acid] returned a melting point of 172 to 175 °C.
For the molecule `CSc1ccc(-c2ccc(C[C@H](NC(=O)C3(NC(=O)[C@@H](S)CC(C)C)CCCC3)C(=O)O)cc2)cc1` (stereo in doubt) [2-{[1-(2-mercapto4-methyl-pentanoylamino)-cyclopentanecarbonyl]-amino}-3-(4′-methylthio-biphenyl-4-yl)-propionic acid], the melting point was in the range of 187 to 189 °C.
With `Cc1c(CC(NC(=O)C2(NC(=O)C(S)CC(C)C)CCCC2)C(=O)O)oc2c(F)c(F)c(F)c(F)c12` (centres unmarked) [Example 13(a), 2-{[1-(2-Mercapto-4-methyl-pentanoylamino)-cyclopentanecarbonyl]-amino}-3-(4,5,6,7-tetrafluoro-3-methyl-benzofuran-2-yl)-propionic acid] the figure was 115 to 117 °C.
With `CC(C)[C@H](S)C(=O)NC1(C(=O)N[C@@H](Cc2cccc(-c3ccccc3)c2)C(=O)O)CCCC1` (stereo in doubt) [3-Biphenyl-3-yl-2-{[1-(2-mercapto-3-methylbutanoylamino)-cyclopentanecarbonyl]-amino}-propionic acid] the figure was 75 to 78 °C; with `COc1ccc(-c2ccc(C[C@H](NC(=O)C3(NC(=O)[C@@H](S)C(C)C)CCCC3)C(=O)O)cc2)cc1` (stereo in doubt) [2-{[1-(2-Mercapto-3-methyl-butanoylamino)-cyclopentanecarbonyl]-amino}-3-(4′-methoxy-biphenyl-4-yl)-propionic acid], 179 to 181 °C.
The result for `COc1ccccc1-c1ccc(C[C@H](NC(=O)C2(NC(=O)[C@@H](S)C(C)C)CCCC2)C(=O)O)cc1OC` (stereo in doubt) [3-(2,2′-Dimethoxy-biphenyl-4-yl)-2-{[1-(2-mercapto-3-methyl-butanoylamino)-cyclopentanecarbonyl]-amino}-propionic acid] reads 173 to 175 °C; that for `CC(C)[C@H](S)C(=O)NC1(C(=O)N[C@@H](CC2CCC(C3CCCCC3)CC2)C(=O)O)CCCC1` (stereo in doubt) [3-Bicyclohexyl-4-yl-2-{[1-(2-mercapto-3-methyl-butanoylamino)-cyclopentanecarbonyl]-amino}-propionic acid], 209 to 210 °C; that for `O=C(NC1(C(=O)N[C@@H](Cc2ccc(-c3ccsc3)cc2)C(=O)O)CCCC1)C(S)Cc1ccccc1` (stereo in doubt) [2-{[1-(2-Mercapto-3-phenyl-propionylamino)-cyclopentanecarbonyl]-amino}-3-[4-(thiophen-3-yl)-phenyl]-propionic acid], 190 to 192 °C.
`CC(C)[C@H](S)C(=O)NC1(C(=O)NC(Cc2ccc(-c3csc(CO)c3)cc2)C(=O)O)CCCC1` (stereo in doubt) [3-[4-(5-Hydroxymethyl-thiophen-3-yl)-phenyl]-2-{[1-(2-mercapto-3-methyl-butanoylamino)-cyclopentanecarbonyl]-amino}-propionic acid] gave a melting point of 155 to 158 °C.
With `CCCC(S)C(=O)NC1(C(=O)NC(Cc2c[nH]c3ccccc23)C(=O)O)CCCC1` (centres unmarked) [Example 13(c), 3-(1H-Indol-3-yl)-2-{[1-(2-mercapto-pentanoylamino)-cyclopentanecarbonyl]-amino}-propionic acid] the figure was 102 to 105 °C; with `CCC[C@H](S)C(=O)NC1(C(=O)N[C@@H](Cc2ccc(-c3ccno3)cc2)C(=O)O)CCCC1` (stereo in doubt) [3-(4-Isoxazole-5-yl-phenyl)-2-{[1-(2-mercapto-pentanoylamino)-cyclopentanecarbonyl]-amino}-propionic acid], 95 to 108 °C.
The result for `O=C(O)[C@H](Cc1ccc(-c2ccc(C(F)(F)F)cc2)cc1)NC(=O)C1(NC(=O)[C@@H](S)Cc2ccccc2)CCCC1` (stereo in doubt) [2-{[1-(2-Mercapto-3-phenyl-propionylamino)-cyclopentanecarbonyl]-amino}-3-(4′-trifluoromethyl-biphenyl-4-yl)-propionic acid] reads 222 to 225 °C; that for `CC(C)C[C@H](S)C(=O)NC1(C(=O)N[C@@H](Cc2ccc(-c3ccno3)cc2)C(=O)O)CCCC1` (stereo in doubt) [3-(4-Isoxazole-5-yl-phenyl)-2-{[1-(2-mercapto4-methyl-pentanoylamino)-cyclopentanecarbonyl]-amino}-propionic acid], 104 to 110 °C; that for `CC(C)C[C@H](S)C(=O)NC1(C(=O)N[C@@H](Cc2ccc(-c3cccc(F)c3)cc2)C(=O)O)CCCC1` (stereo in doubt) [3-(3′-Fluoro-biphenyl-4-yl)-2-{[1-(2-mercapto-4-methyl-pentanoylamino)-cyclopentanecarbonyl]-amino}-propionic acid], 125 to 128 °C.
With `CC(C)[C@H](S)C(=O)NC1(C(=O)N[C@@H](Cc2ccc(-c3ccccc3)cc2)C(=O)O)CCOCC1` (stereo in doubt) [3-Biphenyl-4-yl-2-{[4-(2-mercapto-3-methyl-butanoylamino)-tetrahydro-pyran-4-carbonyl]-amino}-propionic acid] the figure was 161 to 163 °C; with `O=C(O)[C@H](Cc1ccc(-c2ccccc2)cc1)NC(=O)C1(NC(=O)[C@@H](S)Cc2ccc3ccccc3c2)CCCC1` (stereo in doubt) [3-Biphenyl-4-yl-2-{[1-(2-mercapto-3-naphthalen-2-yl-propionylamino)-cyclopentanecarbonyl]-amino}-propionic acid], 166 to 168 °C.
For the molecule `CC[C@@H](C)[C@H](S)C(=O)NC1(C(=O)NC(Cc2ccc(-c3cncnc3)cc2)C(=O)O)CCCC1` (stereo in doubt) (as salt: hydrochloride) [2-{[1-(2-Mercapto-3-methyl-pentanoylamino)-cyclopentanecarbonyl]-amino}-3-(4-pyrimidin-5-yl-phenyl)-propionic acid hydrochloride], the melting point fell in the range of 170 to 184 °C.
With `CC[C@H](C)[C@H](S)C(=O)NC1(C(=O)NC(Cc2ccc(-c3cncnc3)cc2)C(=O)O)CCCC1` (stereo in doubt) [2-{[1-(2-Mercapto-3-methyl-pentanoylamino)-cyclopentanecarbonyl]-amino}-3-(4-pyrimidin-5-yl-phenyl)-propionic acid] the figure was 206 to 208 °C; with `CC(C)[C@H](S)C(=O)NC1(C(=O)N[C@@H](Cc2cccc3c2CCCC3)C(=O)O)CCCC1` (stereo in doubt) [2-{[1-(2-Mercapto-3-methylbutanoylamino)-cyclopentanecarbonyl]-amino}-3-(5,6,7,8-tetrahydro-naphthalen-1-yl)-propionic acid], 158 to 164 °C; with `CC(C)[C@H](S)C(=O)NC1(C(=O)N[C@@H](Cc2ccc3c(c2)CCCC3)C(=O)O)CCCC1` (stereo in doubt) [2-{[1-(2-Mercapto-3-methyl-butanoylamino)-cyclopentanecarbonyl]-amino}-3-(5,6,7,8-tetrahydro-naphthalen-2-yl)-propionic acid], 190 to 192 °C.
With `CC(C)[C@H](S)C(=O)NC1(C(=O)N[C@@H](Cc2ccc(-c3ccccc3)cc2)C(=O)O)CCc2ccccc21` (stereo in doubt) [3-Biphenyl-4-yl-2-{[1-(2-mercapto-3-methyl-butyrylamino)-indane-1-carbonyl]-amino}-propionic acid] the figure was 115 to 120 °C; with `CC(=O)N1CCCC(c2ccc(C[C@H](NC(=O)C3(NC(=O)[C@@H](S)C(C)C)CCCC3)C(=O)O)cc2)C1` (stereo in doubt) [3-[4-(1-Acetyl-piperidin-3-yl)-phenyl]-2-{[1-(2-mercapto-3-methyl-butanoylamino)-cyclopentanecarbonyl]-amino}-propionic acid], 190 to 192 °C.
Regarding `CC(C)[C@H](S)C(=O)NC1(C(=O)N[C@@H](Cc2ccc(-c3ccc(C(F)(F)F)cc3)cc2)C(=O)O)CCCC1` (stereo in doubt) [2-{[1-(2-Mercapto-3-methylbutanoylamino)-cyclopentanecarbonyl]-amino}-3-(4′-trifluoromethyl-biphenyl-4-yl)-propionic acid], the melting point fell in the range of 235 to 236 °C.
